This note sets out measurements from patent publication US10407404B2, “Physical form of a SGR modulator” (ASTRAZENECA AB, priority 2016, dated 2019).

Holding throughout (type): cell-based
Experiment [1] has as its system tyrosine aminotransferase (TAT) mRNA expression. As to the kind of experiment: Tyrosine aminotransferase (TAT) mRNA expression in vitro assay in human primary hepatocytes. The following applies: 18 hr, human cryopreserved primary hepatocytes, versus DMSO control, 2^-ΔΔCt, range and n in brackets. The protocol: The impact of test compounds on hyperglycemic events were assessed by looking at changes in mRNA expression of the gene encoding tyrosine aminotransferase (TAT), which is under direct regulation of the glucocorticoid receptor in human hepatocytes.
Human cryopreserved primary hepatocytes (BioreclamationIVT, M00995-P lot EPB) were plated to 24-well collagen I-coated plates (Becton Dickinson, 354408). Cells were allowed to attach for 4 hr before being challenged with test compounds overnight (18 hr). Cells were harvested and total RNA isolated using RNeasy Plus Mini Kit (Qiagen, 74136) followed by cDNA synthesis using High Capacity cDNA reverse transcription kit (Applied Biosystems, 4368813). Real-time RT PCR was performed on an Applied Biosystems 7500 PCR cycler, using Taqman primers for TAT (Life technologies, Hs00356930_ml) and the reference gene hypoxanthine phosphoribosyltransferase 1 (Life technologies, Hs99999909_ml).
Human cryopreserved primary hepatocytes were transferred in to pre-warmed (37° C.) plating medium (BioreclamationIVT, Z990003) and diluted to 0.7×10^6 viable cells/mL. […] Real-time RT PCR was carried out using TaqMan reagents (Life technologies) on the 7500 PCR cycler, and Ct-values for TAT gene expression was normalised to the control gene and expressed as fold change compared to DMSO control using the 2^−ΔΔCt method.

For experiment [2], the system named is release of TNFα from whole blood stimulated with LPS. As to the kind of experiment: In vitro human whole blood: inhibition of TNFα release after LPS stimulation. The following applies: LPS 30 μg/mL, 18 hr, read-out: TNFα pIC50 (converted). The protocol:
The anti-inflammatory activity of compounds and prednisolone was determined in vitro by their ability to inhibit the release of TNFα from whole blood stimulated with LPS. Venous blood from human donors was collected and anti-coagulated with sodium heparin and transferred to a sterile polystyrene round bottomed plate (Corning) at 190 μL per well.
Compounds were prepared from 10 mM stock solutions in dimethylsulfoxide (DMSO, Sigma) by serially diluting 1/3 in DMSO to produce a master plate with the top concentration at 3.33 mM and the lowest concentration at 0.1 μM. Compounds from the master plate were added to the blood at 1 μL/well (1/200) dilution to give final concentrations ranging between […] and 0.5 nM. Control wells received 1 μL DMSO only and the final DMSO concentration in all wells was 0.5%. […]
TNFα protein levels were determined using an AlphaLISA hTNFα kit (Perkin Elmer) according to the manufacturer's instructions. […] The samples were read at 615 nm with excitation at 680 nm using an Envision plate reader. TNFα in the samples was determined by extrapolation from the standard curve and expressed as pg/mL.
The % inhibition of TNFα was determined by the equation: % inhibition=(1−(A−B)/(C−B))×100 Here, A=TNFα in LPS stimulated samples containing compound, B=TNFα in unstimulated samples. and C=TNFα in LPS stimulated samples without compound. […]

For experiment [3], the target named is T1, human glucocorticoid receptor (GR) (Homo sapiens, UniProt P04150).
T1 construct: endogenous in cells; host or cells: ChagoK1 18:7:2 s4/GRE (human bronchogenic carcinoma ChaGo K1, ATCC HTB 168, stably carrying MMTV-GRE-LacZ reporter)
T1 sequence (P04150 1-777): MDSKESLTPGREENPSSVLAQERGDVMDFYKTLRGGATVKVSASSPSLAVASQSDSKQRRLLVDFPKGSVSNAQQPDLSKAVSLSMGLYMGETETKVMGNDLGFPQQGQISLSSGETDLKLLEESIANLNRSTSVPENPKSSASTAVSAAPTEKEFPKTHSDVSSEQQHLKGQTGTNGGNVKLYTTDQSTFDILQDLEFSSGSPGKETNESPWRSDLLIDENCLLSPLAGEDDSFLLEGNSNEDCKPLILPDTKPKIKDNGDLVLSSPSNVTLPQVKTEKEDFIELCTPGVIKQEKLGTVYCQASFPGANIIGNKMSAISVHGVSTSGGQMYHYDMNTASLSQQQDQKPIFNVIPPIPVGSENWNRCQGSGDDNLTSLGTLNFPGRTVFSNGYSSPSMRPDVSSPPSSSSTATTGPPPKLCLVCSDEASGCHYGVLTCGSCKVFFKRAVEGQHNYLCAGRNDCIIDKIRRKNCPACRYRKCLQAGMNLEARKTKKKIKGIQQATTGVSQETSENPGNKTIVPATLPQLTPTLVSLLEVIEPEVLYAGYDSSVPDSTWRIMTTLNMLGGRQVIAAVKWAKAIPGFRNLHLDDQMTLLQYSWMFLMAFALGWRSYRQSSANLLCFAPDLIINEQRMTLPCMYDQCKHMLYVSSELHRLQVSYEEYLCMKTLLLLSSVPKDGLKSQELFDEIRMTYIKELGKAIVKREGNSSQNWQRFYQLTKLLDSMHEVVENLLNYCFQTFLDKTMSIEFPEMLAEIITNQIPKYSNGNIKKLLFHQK
As to the kind of experiment: GRE Agonist Assay (ChagoK1 18:7:2 s4/GRE MMTV-GRE-LacZ reporter cell line). From the text:
(§1) A reporter cell line (ChagoK1 18:7:2 s4/GRE) was established by stable transfection of the human bronchogenic carcinoma cell line, ChaGo K1 (ATCC: HTB 168) with a MMTV-GRE-LacZ reporter construct. The generated cell line allows for identification of compounds showing agonist activity at the human glucocorticoid receptor (GR) via induction of LacZ gene expression. Ligand-activated GR binds to the Glucocorticoid Response Element (GRE) in the promoter of the LacZ gene and transcription is initiated. The resulting beta-galactosidase activity is measured through a colour reaction (change in absorbance).
Cryo-preserved ChagoK1 18:7:2 s4/GRE cells were suspended in RPMI medium with 10% FBS, 1% NEAA and 1% sodium pyruvate, and seeded as 50000 cells/200 ul/well in 96-well plates and cultured at 37° C. with 5% CO2 and 95% humidity for 24 hours. 1 μl compound was added at different concentrations to the cells and incubated for another 24 hours. Cells were washed once in PBS and lysed with 50 al of 0.1% Triton-X for 10 min at room temperature. […] The plates were measured at 420 nm for absorbance in a SpectraMax reader (Molecular Device).
The relative efficacy (% effect) of a compound is calculated based on the full agonist effect of dexamethasone: % Effect=((Sample abs−min abs)/(max abs−min abs))×100 […]

In experiment [4] the target is T1, human glucocorticoid receptor (GR). As to the kind of experiment: GRE Antagonist Assay (ChagoK1 18:7:2 s4/GRE reporter cell line, dexamethasone pre-stimulated). The following applies: ChaGo-K-1, relative to full antagonist effect of Mifepristone (RU486), read-out: TA antagonist Observed max Effect at 1 μM (%).
Excerpt: as §1, with “celline,” for “cell line,”, “antagonist” for “agonist”, “reduction” for “induction”, “Dexamethasone-activated” for “Ligand-activated”, “Antagonistic properties of compounds are assessed as” for “The resulting”, “intensity reduction from pre-stimulation with dexamethasone” for “activity is measured”
Cryo-preserved ChagoK1 18:7:2 s4/GRE cells were suspended in RPMI medium with 10% FBS, 1% NEAA and 1% sodium pyruvate, and seeded as 50000 cells/200 ul/well in 96-well plates and cultured at 37° C. with 5% CO2 and 95% humidity for 24 hr. Cells were pre-stimulated with 2 μl dexamethasone (70 nM final conc) for 4-5 hr, before addition of 1 μl compound at different concentrations and incubation for an additional 24 hr. […] The plates were measured at 420 nm for absorbance in a SpectraMax reader (Molecular Device).
The relative efficacy (% effect) of a compound is calculated based on the full antagonist effect of the reference compound Mifepristone (RU486): % Effect=((Sample abs−min abs)/(max abs−min abs))×100 […]

In the case of `C[C@]12C=CC(=O)C=C1CC[C@@H]1[C@@H]2[C@@H](O)C[C@@]2(C)[C@H]1CC[C@]2(O)C(=O)CO` [Prednisolone, reference compound], the “Fold Change Tyrosine Aminotransferase Gene Expression Relative to Control (1 μM)” value in experiment [1] was 2.5 (1.4-4.2, n = 8). In addition, the IC50 in experiment [2] is 0.316 µM.
For the molecule `CC(C)[C@H](NC(=O)C(C)(F)F)[C@H](Oc1ccc2c(cnn2-c2ccc(=O)n(C)c2)c1)c1ccccc1` [Example 1, 2,2-difluoro-N-[(1R,2S)-3-methyl-1-{[1-(1-methyl-6-oxo-1,6-dihydropyridin-3-yl)-1H-indazol-5-yl]oxy}-1-phenylbutan-2-yl]propanamide], the IC50 in experiment [2] is 0.631 µM. Moreover, the Emax at 1 µM worked out at 39% in experiment [3] (ChaGo-K-1, at 1 μM, relative to full agonist effect of dexamethasone, read-out: TA agonist Observed max Effect at 1 μM (%)) and 70% in experiment [4]. Moreover, the EC50 in experiment [3] (transactivation, agonist mode, 24 h incubation, read-out: TA agonist pEC50 (converted)) was 0.0126 µM.
